Measurements reported in patent US6492337B1, “Galactosylceramide, glucosylceramide, lactosylceramide, and specific catchers therefor for use in the prophylaxis or therapy of prediabetes, diabetes and/or associated complication” (A+ Science AB, priority 1997, dated 2002).

What was measured:
[1] = system: NOD mouse model of type 1 diabetes; assay: Intrathymic injection in NOD mice, later diabetes incidence; format: in vivo
Method: The NOD mouse model is an animal model of type 1 diabetes. The mice develop spontaneously diabetes within 200 days of life with an incidence of 50% or more. In the present study the animals were examined daily and once a week checked for glucosuria. They were diagnosed as diabetic if their blood glucose values was higher than 200 mg glucose per 100 ml. When diagnosed as diabetics the animals were sacrificed. Otherwise the remaining non-diabetic animals were sacrificed at the end 5 of the study after 200 days of age.
Four groups of animals each containing between 30 and 40 animals were investigated: The animals were injected intrathymically when 3 weeks old. There was injected […] galactosylceramide in 100 μl vehicle (PBS). The control mice were treated with the 100 μl PBS alone. In another experiment liposome preparation of galactosylceramide was made using phosphatidylcholin and galactosylceramide. The control group was treated with phosphatidylcholin and PBS alone.

[2] = system: human mononuclear cells (monocytes and T-cells); settings: compared to incubation with LPS and PHA without galactosylceramide; cited from earlier work

galactosylceramide
mice that developed diabetes, two studies together ([1]; both studies pooled, 31 of 70 mice, PBS mice 57.4%): 44.3% | time of diabetes development versus control mice ([1]; first study, pure form): occurred later than among the control mice | mice that developed diabetes ([1]; first study, pure form in PBS, intrathymic injection at 3 weeks old, followed to 200 days of age, 17 of 37 mice, PBS control 56.8%): 45.9% | IL-6 production [2]: increased | TNF production [2]: increased
